Drawing on ChEMBL document CHEMBL4602623, “Inhibition of hedgehog signaling by stereochemically defined des-triazole itraconazole analogues” (Bioorg Med Chem Lett, 2020), this text covers IC50 for 13 molecules.

As a reminder, the IC50 is the concentration that gives 50% inhibition.

The nature of this assay: Inhibition of Hedgehog signaling pathway in mouse ASZ001 cells assessed as decrease in Gli1 mRNA expression after 48 hrs by qRT-PCR analysis. The class given is cell-based. The following applies: ASZ001, 48 h. Background: In qPCR the cycle at which signal appears reflects the starting amount.
For `CC[C@@H](C)n1ncn(-c2ccc(N3CCN(c4ccc(OC[C@@H]5CO[C@@](Cn6ccnc6)(c6ccc(Cl)cc6Cl)O5)cc4)CC3)cc2)c1=O`, the IC50 came out at 0.11 µM.

Take `CC[C@@H](C)n1ncn(-c2ccc(N3CCN(c4ccc(OC[C@@H]5CO[C@@H](c6ccc(Cl)cc6Cl)O5)cc4)CC3)cc2)c1=O`: the IC50 is 0.31 µM.

As to `CC[C@@H](C)n1ncn(-c2ccc(N3CCN(c4ccc(OC[C@@H]5CO[C@](CN6C(=O)c7ccccc7C6=O)(c6ccc(Cl)cc6Cl)O5)cc4)CC3)cc2)c1=O`, the IC50 is 1.07 µM.

On to `CC[C@@H](C)n1ncn(-c2ccc(N3CCN(c4ccc(OC[C@@H]5CO[C@](Cn6ccnc6)(c6ccc(Cl)cc6Cl)O5)cc4)CC3)cc2)c1=O`, for which the IC50 turned out to be 0.11 µM.

With `CC[C@@H](C)n1ncn(-c2ccc(N3CCN(c4ccc(OC[C@@H]5CO[C@](c6ccc(Cl)cc6Cl)(C(F)(F)F)O5)cc4)CC3)cc2)c1=O`, the half-maximal inhibitory concentration (IC50) was 0.067 µM.

As for `CC[C@@H](C)n1ncn(-c2ccc(N3CCN(c4ccc(OC[C@@H]5CO[C@@](CCl)(c6ccc(Cl)cc6Cl)O5)cc4)CC3)cc2)c1=O`, the 50% inhibitory concentration (IC50) worked out at 0.025 µM.

Regarding `CC[C@@H](C)n1ncn(-c2ccc(N3CCN(c4ccc(OC[C@@H]5CO[C@@](CN6C(=O)c7ccccc7C6=O)(c6ccc(Cl)cc6Cl)O5)cc4)CC3)cc2)c1=O`, the IC50 turned out to be 0.82 µM.

Take `CC[C@@H](C)n1ncn(-c2ccc(N3CCN(c4ccc(OC[C@@H]5CO[C@@](C(N)=O)(c6ccc(Cl)cc6Cl)O5)cc4)CC3)cc2)c1=O`: the 50% inhibitory concentration (IC50) worked out at 0.94 µM.

`CC[C@@H](C)n1ncn(-c2ccc(N3CCN(c4ccc(OC[C@@H]5CO[C@](CCl)(c6ccc(Cl)cc6Cl)O5)cc4)CC3)cc2)c1=O`: the IC50 is 0.02 µM.

Consider `CCC(C)n1ncn(-c2ccc(N3CCN(c4ccc(OCC5COC(Cn6cncn6)(c6ccc(Cl)cc6Cl)O5)cc4)CC3)cc2)c1=O` (stereo not drawn) [ITRACONAZOLE], for which the IC50 amounted to 0.14 µM.

Regarding `CC[C@@H](C)n1ncn(-c2ccc(N3CCN(c4ccc(OC[C@@H]5CO[C@@](c6ccc(Cl)cc6Cl)(C(F)(F)F)O5)cc4)CC3)cc2)c1=O`, the IC50 came out at 0.069 µM.

In the case of `CC[C@@H](C)n1ncn(-c2ccc(N3CCN(c4ccc(OC[C@@H]5CO[C@H](c6ccc(Cl)cc6Cl)O5)cc4)CC3)cc2)c1=O`, the half-maximal inhibitory concentration (IC50) was determined as 0.3 µM.

As to `CC[C@@H](C)n1ncn(-c2ccc(N3CCN(c4ccc(OC[C@@H]5CO[C@@](CN)(c6ccc(Cl)cc6Cl)O5)cc4)CC3)cc2)c1=O`, the IC50 was 0.55 µM.
